Values joined by “and” are separate entries in the source; they are usually repeats but may differ in a detail not shown here. Equal values may be shown once. Read-outs that look alike come from different tables or passages of the source.
How the values were obtained:
rP2Y6 = conditions: Figure 1; ref [33]; cited from earlier work
mP2Y6 = tested on: mP2Y6; design: method as in PMID 37078976; conditions: Figure 1; ref [33]; cited from earlier work
[1] = tested on: hP2Y6R-1321N1 human astrocytoma cells; test: MTT cell viability assay, hP2Y6R-1321N1 astrocytoma cells; assay type: cell-based; conditions: for % survival: P2Y6R-astrocytoma, 12 h, MTT
Method: (§1) The 1321N1 astrocytoma (hP2Y6R-overexpressing) and HeLa (non-transfected) cell lines were cultured in Dulbecco’s modified Eagle’s medium (DMEM, HyClone, Logan, UT, USA) supplemented with 5% heat-inactivated fetal bovine serum (FBS, HyClone, UT, USA), 100 U/mL penicillin, and 100 µg/mL streptomycin in 5% CO2 at 37 °C. The cell viability was determined using an MTT kit (Sigma, St. Louis, MO, USA) according to the manufacturer’s instructions. Briefly, 1 × 10^4 cells were seeded in triplicate in 96-well plates. The hP2Y6R-astrocytoma and HeLa cells were treated with a P2Y6R agonist and antagonists at a range of concentrations and incubated for 12 h. The cell viability was measured at 490 nm using a SpectraMax-M5 Spectrometer (Molecular Devices, San Jose, CA, USA).

HeLa cells = test: MTT cell viability assay, HeLa cells; assay type: cell-based, human; conditions: for % survival: 12 h, MTT
Method: as §1

[2] = tested on: 45 target sites (receptors, channels, and transporters); test: PDSP off-target binding screen at 45 target sites; design: species or system human; conditions: PDSP binding assays
From the text: (§2) Table S2. Off-target screening (to replace table later). We thank Dr. Bryan L. Roth (Univ. North Carolina at Chapel Hill) and National Institute of Mental Health's Psychoactive Drug Screening Program (Contract # HHSN-271-2008-00025-C) for screening data. Reference: Besnard et al.
(§3) Procedures: https://pdsp.unc.edu/pdspweb/content/UNC-CH%20Protocol%20Book.pdf […]
(§4) nucleosides were found at the following sites (human unless noted): 5HT1A, 5HT1B, 5HT1D, […]
(§5) β3, BZP rat brain site, D1, D2, D3, D4, D5, GABAA, H1, H2, H3, H4, M1, M2, M5, δ-opioid receptor (DOR), κ-opioid receptor (KOR), μ-opioid receptor (MOR), σ1, σ2, DAT, NET, SERT. Ki values […]
(§6) Compound # PDSP # Receptor LogKi Ki (nM)

hP2Y6R = molecular target: T1, hP2Y6R (Homo sapiens, UniProt Q15077); test: UDP (100 nM)-induced Ca2+ mobilization in hP2Y6R stably transfected 1321N1 astrocytoma cells; assay type: cell-based; conditions: UDP 100 nM; 3–4 independent triplicate determinations; read-out: IC50, hP2Y6R (Mean ± SEM)
T1 construct: expressed in transfected cells
T1 sequence (Q15077 whole entry): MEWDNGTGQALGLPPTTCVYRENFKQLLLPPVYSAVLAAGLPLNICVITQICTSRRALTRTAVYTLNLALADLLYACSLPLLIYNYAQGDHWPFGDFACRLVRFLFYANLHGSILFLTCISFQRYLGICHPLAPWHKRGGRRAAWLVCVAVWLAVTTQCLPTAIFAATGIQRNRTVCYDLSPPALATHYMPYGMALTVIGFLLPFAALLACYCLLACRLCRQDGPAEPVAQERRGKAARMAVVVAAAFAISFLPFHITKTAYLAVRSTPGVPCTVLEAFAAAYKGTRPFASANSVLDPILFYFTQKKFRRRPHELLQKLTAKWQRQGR
Method: To screen for P2Y6R antagonist activity, PLC-mediated calcium mobilization assays were carried out using the recombinant human P2Y6R stably expressed in 1321N1 astrocytoma cells (hP2Y6R-1321N1) according to the previously published method. Briefly, the hP2Y6R-1321N1 cells were seeded on 96-well black plates and incubated overnight. The antagonists were pretreated along with the FLIPR dye (Calcium 6 assay kit, Molecular Devices, San Jose, CA, USA) containing 5 mM probenecid for 45 min, prior to agonist addition followed by an immediate intracellular Ca^2+ measurement. […] Here, probenecid was used as an organic anion transporter inhibitor to prevent the efflux of the dye into the extracellular environment. During incubation, the membrane permeable dye enters the cytoplasm and cleaves the acetoxymethyl protection to enable Ca^2+ binding. When the P2Y6R was activated by UDP, the increased calcium concentration was directly measured by intracellular changes in the fluorescence intensity with a Fluorescent Imaging Plate Reader (FLIPR^TETRA, Molecular Devices, San Jose, CA, USA).

other P2YRs = conditions: at high µM concentrations; ref [29],[43]; cited from earlier work
α2A [3] = molecular target: T2, α2A (Homo sapiens, UniProt P08913); design: method as in Jung et al., 2021 and 2022 [30],[40]; conditions: PDSP; ref Jung et al., 2021 and 2022 [30],[40]; cited from earlier work
T2 construct: NIMH Psychoactive Drug Screening Program (PDSP)
T2 sequence (P08913 1-465): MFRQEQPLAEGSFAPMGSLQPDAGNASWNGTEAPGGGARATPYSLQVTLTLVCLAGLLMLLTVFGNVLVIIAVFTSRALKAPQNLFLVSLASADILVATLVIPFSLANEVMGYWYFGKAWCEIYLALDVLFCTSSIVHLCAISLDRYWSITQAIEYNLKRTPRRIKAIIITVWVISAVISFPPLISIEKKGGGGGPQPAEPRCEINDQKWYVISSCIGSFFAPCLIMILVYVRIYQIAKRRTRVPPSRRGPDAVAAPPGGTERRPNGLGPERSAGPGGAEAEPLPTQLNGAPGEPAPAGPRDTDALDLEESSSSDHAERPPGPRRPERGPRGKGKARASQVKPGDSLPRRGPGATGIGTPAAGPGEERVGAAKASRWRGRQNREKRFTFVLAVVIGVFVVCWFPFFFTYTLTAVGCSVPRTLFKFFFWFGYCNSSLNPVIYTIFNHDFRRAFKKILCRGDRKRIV

α2C = molecular target: α2C; design: method as in Jung et al., 2021 and 2022 [30],[40]; conditions: PDSP; ref Jung et al., 2021 and 2022 [30],[40]; cited from earlier work
µ-opioid receptor (MOR) = molecular target: µ-opioid receptor (MOR); design: method as in Jung et al., 2021 and 2022 [30],[40]; conditions: PDSP; ref Jung et al., 2021 and 2022 [30],[40]; cited from earlier work
5-HT1D = molecular target: T3, 5-HT1D (Homo sapiens, UniProt P28221); test: PDSP binding assay, 5-HT1D
T3 construct: NIMH Psychoactive Drug Screening Program (PDSP)
T3 sequence (P28221 whole entry): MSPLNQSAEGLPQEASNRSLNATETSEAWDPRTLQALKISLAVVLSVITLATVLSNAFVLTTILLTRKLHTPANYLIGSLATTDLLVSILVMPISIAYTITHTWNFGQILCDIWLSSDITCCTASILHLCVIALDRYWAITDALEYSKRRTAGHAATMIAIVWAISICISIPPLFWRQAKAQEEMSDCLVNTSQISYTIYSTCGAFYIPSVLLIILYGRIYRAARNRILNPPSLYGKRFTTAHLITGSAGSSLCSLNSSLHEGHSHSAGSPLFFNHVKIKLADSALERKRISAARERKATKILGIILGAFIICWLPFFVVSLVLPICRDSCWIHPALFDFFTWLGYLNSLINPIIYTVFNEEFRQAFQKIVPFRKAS
From the text: as §2, §3, §4, §5, §6

D5 = molecular target: T4, D5 (Homo sapiens, UniProt P21918); test: PDSP binding assay, D5
T4 construct: NIMH Psychoactive Drug Screening Program (PDSP)
T4 sequence (P21918 whole entry): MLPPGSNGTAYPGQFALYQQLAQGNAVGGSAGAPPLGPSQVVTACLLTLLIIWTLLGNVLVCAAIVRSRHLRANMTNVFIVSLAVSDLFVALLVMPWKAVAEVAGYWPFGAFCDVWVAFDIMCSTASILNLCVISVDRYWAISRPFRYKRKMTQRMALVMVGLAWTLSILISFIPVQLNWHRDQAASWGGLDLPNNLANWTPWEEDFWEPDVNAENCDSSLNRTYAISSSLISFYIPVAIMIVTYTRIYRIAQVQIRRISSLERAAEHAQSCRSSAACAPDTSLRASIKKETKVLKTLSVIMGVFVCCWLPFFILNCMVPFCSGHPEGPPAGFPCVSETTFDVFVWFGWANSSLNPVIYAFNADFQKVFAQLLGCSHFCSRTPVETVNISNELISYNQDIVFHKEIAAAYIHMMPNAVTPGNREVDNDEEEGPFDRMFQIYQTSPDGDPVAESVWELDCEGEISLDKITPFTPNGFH
From the text: as §2, §3, §4, §5, §6

hP2Y14R = molecular target: T5, hP2Y14R (Homo sapiens, UniProt Q15391); test: whole-cell binding of fluorescent antagonist MRS4174 in CHO-hP2Y14R cells (flow cytometry)
T5 construct: expressed in transfected cells
T5 sequence (Q15391 1-338): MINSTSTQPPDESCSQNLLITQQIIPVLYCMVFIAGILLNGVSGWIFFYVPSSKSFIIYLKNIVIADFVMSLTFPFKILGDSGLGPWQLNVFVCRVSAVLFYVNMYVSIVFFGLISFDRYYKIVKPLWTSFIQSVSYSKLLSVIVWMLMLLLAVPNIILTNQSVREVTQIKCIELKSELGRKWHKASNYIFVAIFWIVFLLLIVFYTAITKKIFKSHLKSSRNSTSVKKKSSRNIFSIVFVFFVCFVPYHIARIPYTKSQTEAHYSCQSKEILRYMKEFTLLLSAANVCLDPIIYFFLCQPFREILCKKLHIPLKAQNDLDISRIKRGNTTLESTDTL

D1 = molecular target: T6, D1 (Homo sapiens, UniProt P21728); test: PDSP binding assay, D1
T6 construct: NIMH Psychoactive Drug Screening Program (PDSP)
T6 sequence (P21728 whole entry): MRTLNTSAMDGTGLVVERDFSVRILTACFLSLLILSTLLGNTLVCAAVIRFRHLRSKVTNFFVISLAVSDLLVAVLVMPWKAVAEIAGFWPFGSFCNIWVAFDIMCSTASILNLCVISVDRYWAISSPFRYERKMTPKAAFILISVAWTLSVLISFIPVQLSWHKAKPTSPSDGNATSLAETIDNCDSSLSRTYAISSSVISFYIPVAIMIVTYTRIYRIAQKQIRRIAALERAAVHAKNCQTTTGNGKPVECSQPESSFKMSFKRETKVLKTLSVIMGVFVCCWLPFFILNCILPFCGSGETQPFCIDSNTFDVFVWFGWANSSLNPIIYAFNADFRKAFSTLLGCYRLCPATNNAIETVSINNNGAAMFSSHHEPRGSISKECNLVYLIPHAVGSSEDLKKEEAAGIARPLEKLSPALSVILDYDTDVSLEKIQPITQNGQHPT
From the text: as §2, §3, §4, §5, §6

α2B = molecular target: T7, α2B (Homo sapiens, UniProt P18089); test: PDSP binding assay, α2B; conditions: mean, n = 2
T7 construct: NIMH Psychoactive Drug Screening Program (PDSP)
T7 sequence (P18089 1-450): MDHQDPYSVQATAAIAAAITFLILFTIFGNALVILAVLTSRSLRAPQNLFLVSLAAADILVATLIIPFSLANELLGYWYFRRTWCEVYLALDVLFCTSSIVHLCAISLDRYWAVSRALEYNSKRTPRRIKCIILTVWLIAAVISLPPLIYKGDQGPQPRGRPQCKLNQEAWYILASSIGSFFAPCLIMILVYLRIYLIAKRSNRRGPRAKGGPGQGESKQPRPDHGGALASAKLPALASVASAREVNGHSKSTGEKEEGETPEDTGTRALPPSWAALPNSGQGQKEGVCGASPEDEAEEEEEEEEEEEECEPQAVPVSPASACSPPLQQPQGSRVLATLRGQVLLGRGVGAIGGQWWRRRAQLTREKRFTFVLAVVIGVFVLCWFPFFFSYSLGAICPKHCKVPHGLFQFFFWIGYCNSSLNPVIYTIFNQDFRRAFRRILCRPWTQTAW
From the text: as §2, §3, §4, §5, §6

α2A [4] = molecular target: T2, α2A; test: PDSP binding assay, α2A
From the text: as §2, §3, §4, §5, §6

H1 = molecular target: T8, H1 (Homo sapiens, UniProt P35367); test: PDSP binding assay, H1
T8 construct: NIMH Psychoactive Drug Screening Program (PDSP)
T8 sequence (P35367 whole entry): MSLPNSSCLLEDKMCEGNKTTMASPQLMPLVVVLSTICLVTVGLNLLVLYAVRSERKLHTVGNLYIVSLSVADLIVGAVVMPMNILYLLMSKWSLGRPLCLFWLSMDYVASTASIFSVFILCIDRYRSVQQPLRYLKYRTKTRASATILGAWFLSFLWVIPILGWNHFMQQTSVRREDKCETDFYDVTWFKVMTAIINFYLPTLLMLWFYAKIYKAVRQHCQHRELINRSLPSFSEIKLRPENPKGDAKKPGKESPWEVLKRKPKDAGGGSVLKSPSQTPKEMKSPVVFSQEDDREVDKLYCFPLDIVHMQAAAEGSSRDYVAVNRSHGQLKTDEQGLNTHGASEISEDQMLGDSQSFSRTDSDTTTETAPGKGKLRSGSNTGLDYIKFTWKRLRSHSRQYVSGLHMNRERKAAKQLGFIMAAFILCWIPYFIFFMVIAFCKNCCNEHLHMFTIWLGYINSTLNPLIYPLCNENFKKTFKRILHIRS
From the text: as §2, §3, §4, §5, §6

P2Y6R = P2Y6R agonist; no reference given; read-out: EC50 in PLC activation; cited from earlier work

## S=C=Nc1cccc(NC(=S)NCCCCNC(=S)Nc2cccc(N=C=S)c2)c1 [Compound 1]
rP2Y6
  IC50: 0.098 µM

## O=[N+]([O-])C1=Cc2cc(F)cc(F)c2OC1C(F)(F)F (centres unmarked) [Compound 2b]
mP2Y6
  IC50: 17.8 µM
[1]; 0.1 µM
  % survival: 104%
[1]; 0.5 µM
  % survival: 104%
[1]; 1 µM
  % survival: 105%
[1]; 5 µM
  % survival: 98%
[1]; 10 µM
  % survival: 88%
[1]; hP2Y6R-1321N1 cells, at 10 µM, 12 h exposure
  inhibition of viability: 12%
HeLa cells; 0.1 µM
  % survival: 87%
HeLa cells; 0.5 µM
  % survival: 86%
HeLa cells; 1 µM
  % survival: 87%
HeLa cells; 5 µM
  % survival: 84%
HeLa cells; 10 µM
  % survival: 78%
HeLa cells; at 10 µM, 12 h exposure
  inhibition of viability: 22%
[2]
  off-target interactions at 45 target sites: no off-target interactions and none

## CC[Si](C#Cc1ccc2c(c1)C=C([N+](=O)[O-])C(C(F)(F)F)O2)(CC)CC (centres unmarked) [Compound 13]
hP2Y6R
  IC50: 0.604 ± 0.239 µM
Other P2YRs
  inhibition at most other P2YRs: minor
α2A [3]
  Ki: 2 µM

## O=C(O)c1ccc(C#Cc2ccc3c(c2)C=C([N+](=O)[O-])C(C(F)(F)F)O3)cc1 (centres unmarked) [Compound 17]
α2C
  Ki: 2.6 µM
Other P2YRs
  inhibition at most other P2YRs: minor
µ-opioid receptor (MOR)
  Ki: 4.2 µM

## CC(C)(C)OC(=O)NCCCCC#Cc1ccc2c(c1)C=C([N+](=O)[O-])C(C(F)(F)F)O2 (centres unmarked) [Compound 24, tert-Butyl (6-(3-nitro-2-(trifluoromethyl)-2H-chromen-6-yl)hex-5-yn-1-yl)carbamate]
5-HT1D; PDSP, mean, n = 2, read-out: Ki, 5-HT1D
  Ki: 3200 nM
5-HT1D; Table S2, single determinations, read-out: Ki (nM), 5-HT1D
  Ki: 3260 nM and 3040 nM
hP2Y6R
  IC50: 0.568 ± 0.163 µM
D5; PDSP, mean, n = 2, read-out: Ki, D5
  Ki: 2400 nM
D5; Table S2, single determinations, read-out: Ki (nM), D5
  Ki: 1360 nM and 3420 nM
hP2Y14R; CHO-hP2Y14, competitive binding, flow cytometer
  IC50: 5.6 ± 0.7 µM
hP2Y14R; hP2Y6R vs hP2Y14R
  fold selective compared to the hP2Y14R: 10 fold
D1; PDSP, mean, n = 2, read-out: Ki, D1
  Ki: 1900 nM
D1; Table S2, single determination, read-out: Ki (nM), D1
  Ki: 1600 nM
α2B
  Ki: 0.46 µM
α2A [4]; PDSP, mean, n = 2, read-out: Ki, α2A
  Ki: 160 nM
α2A [4]; Table S2, single determinations, read-out: Ki (nM), Alpha2A
  Ki: 148 nM and 168 nM
H1; PDSP, mean, n = 2, read-out: Ki, H1
  Ki: 1000 nM
H1; Table S2, single determinations, read-out: Ki (nM), H1
  Ki: 631 nM and 1430 nM

## O=c1[nH]c(=O)n([C@@H]2O[C@H](COP(=O)(O)OP(=O)(O)O)[C@@H](O)[C@H]2O)cc1I [MRS2693, 5-iodouridine-5′-O-diphosphate, reference compound]
P2Y6R
  EC50: 0.015 µM
[1]; 1 µM
  % survival: 98%
[1]; 5 µM
  % survival: 100%
[1]; 10 µM
  % survival: 101%
[1]; astrocytoma cells, ≤10 µM, 12 h exposure
  effect on viability: no significant effect
HeLa cells; 1 µM
  % survival: 105%
HeLa cells; 5 µM
  % survival: 106%
HeLa cells; 10 µM
  % survival: 104%

## O=c1ccn([C@@H]2O[C@H](COP(=O)(O)OP(=O)(O)O)[C@@H](O)[C@H]2O)c(=O)[nH]1 [UDP, uridine 5′-diphosphate]
P2Y6R
  EC50: 0.013 µM

Reference: paper PMC11352859, “Functionalized Congeners of 2H-Chromene P2Y6 Receptor Antagonists” (Cells, 2024)
